Measurements: US20150133411A1, “COMPOUNDS WITH TRPV4 ACTIVITY, COMPOSITIONS AND ASSOCIATED METHODS THEREOF” (The University of Utah Research Foundation, priority 2012, published 2015)

Key:
[1] = molecular target: T1, TRPV4 (Mus musculus, UniProt Q9EPK8); assay: GSK-evoked [Ca++]i in retinal Müller glial cells; format: cell-based; set-up: endogenous in cells; host or cells: retinal Müller glial cells
[2] = system: retinal ganglion cells; assay: TUNEL assay of apoptotic cell death in retinas; format: cell-based; details: Compound 1 1 uM, RuR 10 μM
Description: Terminal deoxynucleotidyl transferase-mediated dUTP-biotin nick end labeling (TUNEL) is a common method for detecting fragmentation that results from apoptotic signaling cascades. Retinas were embedded, cryosectioned, and processed for the TUNEL assay following the protocol by Gavrieli et al. (1992). After 30 min. rehydration in 70% ethanol, 2×5 min. rinses in PBS and 1% Triton-X in 1% citrate buffer (pH 7.3), the slides were subjected to a final rinse in PBS. Slides were then incubated for 30 min. in the reaction buffer (30 mM Trizma-HCl, 140 mM cacodylate, 1.0 mM CaCl2, 0.2% Triton X-100, pH 7.2). Positive controls were treated with DNAse I (Roche Diagnostics; Branford, Conn.; 10 U/ml) in the reaction buffer. Next, slides were treated for 1 hour with 0.03 units/μl terminal transferase and 4 μM biotin-16-dUTP (Roche Diagnostics). The reaction was terminated in 30 mM Na+ citrate, 300 mM NaCl and 0.2% Triton X-100 in PBS (5 min.) and rinsed in PBS (2×5 min), exposed to 1% bovine serum albumin in PBS for 20 min and rinsed. Apoptotic cells were visualized with a confocal microscope (Zeiss LSM510) and categorized by size. […] This was blocked by RuR and by the TRPV4 antagonist Compound 1.

[3] = system: retinal neurons (RGCs) and glia (Müller cells); assay: Hypotonic stimuli: cell swelling (change in cell area) and [Ca++]i; format: cell-based
Excerpt: FIG. 18A illustrates the effect of hypotonic stimuli on cell swelling as measured by change in cell area. Hypotonic stimuli were generated by replacing extracellular sodium levels to lower osmolarity from 300 mOsm to 190 mOsm.

[4] = system: retinal ganglion cell; assay: High-Speed Pressure Clamp, pressure-induced inward currents; format: cell-based; details: voltage-clamped retinal ganglion cell, pressure steps 10 to 50 mm Hg
Description: The cell was voltage clamped and stimulated with the High-Speed Pressure Clamp method, as detailed by Besch et al (Pflugers Arch. 2002 October; 445(1):161-6). This method consists of a specialized headstage coupled to a piezo element in the pressure/vacuum control valve. By balancing the access of pressure to the patch pipette, the device generates rapid and reproducible pressure steps of >±200 mm Hg. Channel activity is recorded in the cell-attached mode or the membrane is “zapped” into the outside-out configuration.

[5] = system: retinal ganglion cells; assay: In vivo intraocular injection of GSK, NeuN+ RGC count; details: intraocular GSK, 48 hours
Description: In this experiment, GSK (100-300 nM) was injected intraocularly with a Hamilton syringe. Retinas were isolated after 48 hours, fixed and labeled with the RGC marker antibody NeuN. NeuN-immunopositive somata in the ganglion cell layer, shown in the panel on the right, were counted. The bar graph represents quantification of NeuN^+ cells in the indicated experimental groups.

[6] = system: Müller cells; assay: Arachidonic acid-induced [Ca2+]i in Müller cells; format: cell-based; details: 1 μM, 10 μM arachidonic acid
Description: This response is blocked by Compound 1 (1 μM).

[7] = system: MB mouse model of glaucoma; assay: IOP in microbead (MB) mouse model of glaucoma, IP dosing; format: in vivo; details: 10 mg/kg body weight IP; MB-injected mice
Description: FIG. 2 confirms that the mouse model for glaucoma causes RGC degeneration. Specifically, microbeads (MBs) were injected into the anterior chamber of a mouse eye. The MBs increase intraocular IOP above 15 mm Hg by blocking outflow of the aqueous humor within the anterior chamber of the eye. MBs were reinjected as needed to maintain a high IOP, typically one injection every two weeks. Contralateral eyes were injected intraocularly with the vehicle PBS (phosphate buffered saline) as controls. […] IOP levels were measured at least twice weekly before and after intraocular injections. After injections, mice recovered for 48 hours before IOP measurements resumed. […] Retinas were then removed and processed for immunohistochemistry (IHC). […] After rinsing with PBS, PBS containing the secondary antibody conjugated to fluorophores (Alexa 488 or Alexa 594; […] Retinas were rinsed and flat-mounted on microscope slides. Mounting medium was added and retinal wholemounts were coverslipped. The density of RGCs was imaged with a confocal microscope (Zeiss LSM 510) and quantified by counting NeuN-, CFP- and/or Tuj-1-labeled somata in the RGC layer of the retinal wholemount preparation. Injection of microbeads induces RGC degeneration after 8 weeks but not after 4 weeks. […] Mice were sedated with IP injection of Avertin with final amount calculated by weight (e.g., 0.5 ml for 21-24 g animals). […]

[8] = molecular target: T1, TRPV4; assay: AGB cation influx into retinal cells (anti-AGB antibody); format: cell-based; set-up: these two cell types express TRPV4 channels in the mouse retina; from tissue; host or cells: mouse retina (retinal ganglion cells and Müller glial cells); details: mouse retina
Description: FIG. 16 illustrates the effect of the TRPV4 agonist GSK on cation influx into mouse retinal cells of the mouse retina. The influx was determined using the anti-AGB antibody, as described by Marc R E (J Comp Neurol 407(1): 47-64, 1999). AGB is a membrane permeant cation that can flow through most known cation channels. Using an anti-AGB antibody, it can be determined where the cation flux occurs and, therefore, which cells are activated.

[9] = system: retinal ganglion cells; assay: Hypotonic swelling-induced calcium influx into retinal ganglion cells (Fura-2); format: cell-based; details: FIG. 17C
Excerpt: Cells were labeled with fluorescent calcium indicator dye Fura-2 and exposed to hypotonic solutions in which extracellular sodium was replaced by the osmotically inert substance mannitol, as described in […] et al. (J Neurosci. 2011 May 11; 31(19):7089-101; PMID 21562271).

T1 sequence (Q9EPK8 whole entry): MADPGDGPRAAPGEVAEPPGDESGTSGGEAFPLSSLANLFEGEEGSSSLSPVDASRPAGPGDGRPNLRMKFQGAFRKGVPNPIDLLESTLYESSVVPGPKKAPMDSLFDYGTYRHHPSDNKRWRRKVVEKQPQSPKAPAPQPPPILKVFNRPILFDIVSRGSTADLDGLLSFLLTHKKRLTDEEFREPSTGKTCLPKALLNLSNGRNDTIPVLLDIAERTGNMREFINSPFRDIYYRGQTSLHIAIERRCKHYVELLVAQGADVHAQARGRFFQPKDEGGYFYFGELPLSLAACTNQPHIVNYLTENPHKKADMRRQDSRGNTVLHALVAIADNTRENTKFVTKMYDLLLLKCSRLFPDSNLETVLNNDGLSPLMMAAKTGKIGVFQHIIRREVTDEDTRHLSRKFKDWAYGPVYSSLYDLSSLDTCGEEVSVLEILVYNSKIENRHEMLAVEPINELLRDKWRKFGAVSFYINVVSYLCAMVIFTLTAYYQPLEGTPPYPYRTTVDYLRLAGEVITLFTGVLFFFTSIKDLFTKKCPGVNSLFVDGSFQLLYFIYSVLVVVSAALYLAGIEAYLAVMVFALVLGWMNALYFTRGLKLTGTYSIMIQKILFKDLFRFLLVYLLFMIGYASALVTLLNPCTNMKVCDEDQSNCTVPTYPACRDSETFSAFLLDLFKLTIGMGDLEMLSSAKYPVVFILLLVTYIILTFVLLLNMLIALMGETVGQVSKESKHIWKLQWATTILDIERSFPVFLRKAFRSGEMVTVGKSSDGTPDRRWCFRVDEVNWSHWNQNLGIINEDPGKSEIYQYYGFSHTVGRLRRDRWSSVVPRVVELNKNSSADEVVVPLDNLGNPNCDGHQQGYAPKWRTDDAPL

SMILES: Cc1c(C(=O)Nc2cccc(C(F)(F)F)c2)cc(-c2ccccc2)n1CCCN1CCOCC1 [Compound 1, N-(3-(trifluoromethyl)phenyl)-2-methyl-1-(3-morpholinopropyl)-5-phenyl-1H-pyrrole-3-carboxamide]
- effect on GSK-evoked increase in [Ca++]i ([1]; retinal Müller glial cells): blocked
- reversibility of effect on glial calcium levels ([1]; superfusion with control saline): reversible, as it can be washed out by 10 minute superfusion with control saline
- apoptotic cell death induced by hypotonic swelling (TUNEL) ([2]; 190 mOsm saline): block apoptotic cell death
- apoptotic cell death induced by TRPV4 agonist GSK (TUNEL) ([2]; GSK 100 nM): block apoptotic cell death
- hypotonic stimuli-induced increase in [Ca++]i ([3]; FIG. 18B): inhibited
- cell swelling (change in cell area) ([3]; hypotonic stimuli, 300 mOsm to 190 mOsm): prevented hypotonic stimuli-mediated cell swelling to the same extent as BAPTA-AM
- pressure-induced inward currents [4]: reversibly antagonized
- effect on GSK-induced degeneration of RGC [5]: blocked
- effect on arachidonic acid-induced [Ca2+]i increase [6]: blocked
- MB-induced increase in IOP [7]: blocked the increase in IOP to the level observed in control mice
- effect on GSK-induced AGB cation influx [8]: strongly antagonized
- pressure-dependent influx of calcium in RGCs [9]: prevents
